Test [1] concerns cathepsin K, TRAP and NFATc1 mRNA in CD14+ cells. Briefly: Real-time RT-PCR of osteoclast marker genes in CD14+ cells. It is filed as cell-based, human. Conditions: CD14+ cells with M-CSF and RANKL; day 3 to day 11 after RANKL stimulation. (In general: Quantitative PCR measures a nucleic acid by following its amplification.)
For test [2], the system named is HEK-RANK cells (human embryonic kidney cells overexpressing RANK). Briefly: RANK signaling and receptor half-life study in HEK-RANK cells. It is filed as cell-based. As for the experimental part:
(A) Inhibition of activation of Akt, p38 and ERK by Pep8 (50 μM) was assessed as inhibition of phosphorylation (p) in RAW264.7 cells using Western blot analysis with antibodies against phospho-Akt, phospho-p38 and phospho-ERK. Immunoblots were stripped and then reprobed with antibodies against Akt, p38 and ERK. β-Actin served as loading control. (B) Western blot analyses of NF-κB distribution in the presence or absence of 50 μM Pep8. After treatment with the polypeptide, RAW264.7 cells were fractionated into nuclear and cytoplasmic portions. Nuclear proteins (45 μg) were analyzed with anti-NF-κB p105, p50 and p65 antibodies, while cytoplasmic proteins (30 μg) were analyzed with anti-IκBα. For the non-canonical NF-κB pathway, RelB expression was analyzed in both fractions. β-Actin, HDAC1 and Histone H3 served as loading controls for the cytoplasmic and nuclear fractions, respectively. A representative experiment is shown; time after RANKL stimulation is indicated in parenthesis. (C) Receptor half-life study. […] RANK expression was determined with anti-RANK/TNFRSF11A.
Murine RAW264.7 cells (ATCC) were cultured in αMEM (Invitrogen) supplemented with 10% FBS (Hyclone). Human embryonic kidney 293 cells (ATCC) were stably transduced with an expression-ready clone (Ex-00007-Lv105, OmicsLink™ Expression Clone, GeneCopoeia™) containing the ORF cDNA of RANK/TNFRSF11A. […]

The subject of test [3] is ovariectomized C57BL/6 mice. As to the kind of experiment: Ovariectomy-induced bone loss in mice, micro-CT of tibiae and L4 vertebrae. It is filed as in vivo, mouse. The conditions noted are these: 35 days. The text has this: Eight-week-old ovariectomized (OVX) female C57BL6 and non-ovariectomized control mice were purchased from Janvier (Le Genest Saint Ilsle, France). Mice were housed under pathogen-free conditions at the Experimental Therapy Unit (Faculty of Medicine, University of Nantes, France), and animal care and experimental protocols were approved by the French Ministry of Research and were done in accordance with the institutional guidelines of the French Ethical Committee and under the supervision of authorized investigators. After recovery from OVX surgery for 7 days and acclimation, the mice were randomly divided into treatment groups receiving daily subcutaneous injections of a peptide and a control group receiving daily injections of the vehicle (PBS) only. Non-ovariectomized or sham-operated mice were included in the studies as healthy controls. Three experimental protocols were established. Protocol 1: Ovariectomized mice received daily s.c. injections of 10 mg/kg body weight Pep8 (Pep8, n=8) or vehicle only (OVX, n=8). Non-ovariectomized (NOV, n=8) mice served as normal controls. Protocol 2: Ovariectomized mice were randomly divided into four groups (n=8), receiving daily treatments with pegylated Pep8 (Pep8-NPEG5) at 10 mg/kg or 2.5 mg/kg, or unpegylated Pep8 at a dose of 10 mg/kg/d, or the vehicle only. Sham-operated mice (n=5) served as healthy controls. Protocol 3: Ovariectomized mice receiving daily treatments with pegylated Pep8 (Pep8-NPEG8) at 10 mg/kg or 2.5 mg/kg, as described before, or unpegylated Pep8 at a lower dose of 2.5 mg/kg/d, or the vehicle only. Sham-operated mice (n=8) served as healthy controls.
During the experimental period, the body weight of the mice was monitored. […] After treatment for five weeks, mice were anesthetized with isoflurane (2%, 1 L/min) and sacrificed by cervical dislocation. Lumbar vertebrae and tibiae were collected for micro-CT analysis and stored at 4° C. in 4% paraformaldehyde until further analysis. Additionally, internal organs (heart, liver, lungs, kidneys, spleen, intestines and thymus) of some mice (n=3 per group) were harvested and stored for toxicity screening.
Analysis of architectural variables of tibiae and vertebrae of mice was performed using the high-resolution X-ray micro-CT system for small animal imaging SkyScan-1072 (SkyScan, Belgium). After scanning, the image data were transferred to a workstation and the proximal tibiae and the fourth lumbar vertebrae (L4) were rendered for 3-D display and calculation of the structural indices (Parfitt et al. 1987) using the SkyScan analysis system (CT-analyser, CT-volume, SkyScan). For trabecular bone parameters in tibiae, transverse CT slices were obtained in the region of interest in the axial direction from the trabecular bone ca. 0.1 mm below the growth plate to the mid-femur. Contours were defined and drawn close to the cortical bone. The trabecular bone was then removed and analyzed separately. Fifty slices (1 mm) at approximately […] distal to the growth plate of the proximal ends of the tibiae were used for analysis. […] The threshold level for the measurements was set at 55 for the analyses. The analysis of the specimens involved the following bone measurements: bone volume fraction (BV/TV, %), trabecular number (TbN), trabecular thickness (TbTh) and trabecular spacing (TbSp).

Setting [4] is: 10 mg/kg/day s.c., vs vehicle-treated OVX mice.

Entries after “also recorded” stand apart in the source; their conditions may differ. Ends that are not written are not given here.

In the case of NVLKLCSGE [Pep8, NVLKLCSGE], in test [1], the “mRNA expression of cathepsin K, TRAP and NFATc1” value is given as “inhibited the mRNA expression; also recorded: markedly reduced”. For the same sequence, the “activation of p38 after stimulation with RANKL” value in test [2] is given as “strongly inhibited”. Besides, in test [2] (CHX 4 μg/mL, Pep8 200 μM, compared with RANKL), the “degradation of RANK in presence of cycloheximide” value is on record as “lead to a degradation of RANK, although to a somewhat lesser extent”. For the same sequence, in test [3] (2.5 mg/kg/d s.c.), the “protection against OVX-induced trabecular bone loss (μCT, tibiae)” value is given as “less efficient”. For the same sequence, the “trabecular BV/TV and TbN, tibiae” value in test [3] (2.5 mg/kg/d, vs vehicle) was “only slightly, but not significantly increasing”. Besides, the “protection against OVX-induced trabecular bone loss (μCT)” value in test [3] (10 mg/kg/d s.c.) is reported as “prevented the loss of trabecular bone; also recorded: overall increase in trabecular bone density”. Moreover, in test [3] (setting [4]), the “increase of TbN, proximal tibia” value is on record as 71%; the “increase of TbTh, proximal tibia” value came to 14%; the “increase of trabecular BV/TV, proximal tibia” value is given as 93%. The “TbS, proximal tibia” value in test [3] (10 mg/kg/day s.c., vs vehicle-treated mice) was “decline”. In addition, in test [3] (10 mg/kg/day), the “TbN, lumbar vertebrae” value is “increased” and the “TbS, lumbar vertebrae” value is reported as “reduced”. Further, the “TbTh, lumbar vertebrae” value in test [3] (10 mg/kg/day, vs OVX control mice) is recorded as “slightly, but not statistically significantly increased”. Further, the “vertebral trabecular BV/TV” value in test [3] (lumbar vertebrae, 10 mg/kg/day) was “lower in OVX than Pep8-treated mice”.
